Tests used:
Assay in all cases: relative viability (nuclei count vs DMSO), 5 days (fraction); higher = more cells survive
SK-LU-1 = test system: SK-LU-1
Method in brief: (§1)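 Lung cancer cell lines, seeded in 1536-well plates, were treated the following day by pin tool with a single drug or with five library-drug doses (not always all listed) in √10 steps on top of a fixed anchor-drug dose. Cells were fixed and nuclei stained in one step after 5 days, and nuclei were counted. Relative viability is the nuclei count for treated wells divided by that for vehicle wells, reported as medians of duplicate plates.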

CAL-12T = test system: CAL-12T
Method in brief: as §1

HOP-62 = test system: HOP-62
Method in brief: as §1

NCI-H1395 = test system: NCI-H1395
Method in brief: as §1

HCC-827 = test system: HCC-827
Method in brief: as §1

NCI-H1792 = test system: NCI-H1792
Method in brief: as §1

HCC-366 = test system: HCC-366
Method in brief: as §1

HARA = test system: HARA
Method in brief: as §1

EMC-BAC-2 = test system: EMC-BAC-2
Method in brief: as §1

NCI-H460 = test system: NCI-H460
Method in brief: as §1

NCI-H2228 = test system: NCI-H2228
Method in brief: as §1

SW 1573 = test system: SW 1573
Method in brief: as §1

NCI-H727 = test system: NCI-H727
Method in brief: as §1

NCI-H1755 = test system: NCI-H1755
Method in brief: as §1

NCI-H2009 = test system: NCI-H2009
Method in brief: as §1

LCLC-103H = test system: LCLC-103H
Method in brief: as §1

A-427 = test system: A-427
Method in brief: as §1

NCI-H522 = test system: NCI-H522
Method in brief: as §1

COR-L 105 = test system: COR-L 105
Method in brief: as §1

NCI-H1915 = test system: NCI-H1915
Method in brief: as §1

NCI-H23 = test system: NCI-H23
Method in brief: as §1

NCI-H1437 = test system: NCI-H1437
Method in brief: as §1

## O=c1cc(N2CCOCC2)oc2c(-c3cccc4c3sc3ccccc34)cccc12 + CC(=O)Nc1cccc(-n2c(=O)n(C3CC3)c(=O)c3c(Nc4ccc(I)cc4F)n(C)c(=O)c(C)c32)c1 [Trametinib] (partner 0.02 µM)
SK-LU-1; first compound 0.01 µM
  relative viability: 0.521
SK-LU-1; first compound 0.03162 µM
  relative viability: 0.453
SK-LU-1; first compound 0.1 µM
  relative viability: 0.505
SK-LU-1; first compound 0.3162 µM
  relative viability: 0.443
SK-LU-1; first compound 1 µM
  relative viability: 0.5
CAL-12T; first compound 0.01 µM
  relative viability: 0.334
CAL-12T; first compound 0.03162 µM
  relative viability: 0.417
CAL-12T; first compound 0.1 µM
  relative viability: 0.354
CAL-12T; first compound 0.3162 µM
  relative viability: 0.381
CAL-12T; first compound 1 µM
  relative viability: 0.363
HOP-62; first compound 0.01 µM
  relative viability: 0.379
HOP-62; first compound 0.03162 µM
  relative viability: 0.384
HOP-62; first compound 0.1 µM
  relative viability: 0.358
HOP-62; first compound 0.3162 µM
  relative viability: 0.385
HOP-62; first compound 1 µM
  relative viability: 0.373
NCI-H1395; first compound 0.03162 µM
  relative viability: 1.1
NCI-H1395; first compound 0.1 µM
  relative viability: 1.02
NCI-H1395; first compound 0.3162 µM
  relative viability: 1.07
NCI-H1395; first compound 1 µM
  relative viability: 1.01
HCC-827; first compound 0.01 µM
  relative viability: 0.528
HCC-827; first compound 0.03162 µM
  relative viability: 0.508
HCC-827; first compound 0.1 µM
  relative viability: 0.547
HCC-827; first compound 0.3162 µM
  relative viability: 0.504
HCC-827; first compound 1 µM
  relative viability: 0.525
NCI-H1792; first compound 0.01 µM
  relative viability: 0.322
NCI-H1792; first compound 0.03162 µM
  relative viability: 0.445
NCI-H1792; first compound 0.3162 µM
  relative viability: 0.383
NCI-H1792; first compound 1 µM
  relative viability: 0.458
HCC-366; first compound 0.01 µM
  relative viability: 0.411
HCC-366; first compound 0.03162 µM
  relative viability: 0.355
HCC-366; first compound 0.1 µM
  relative viability: 0.36
HCC-366; first compound 0.3162 µM
  relative viability: 0.333
HCC-366; first compound 1 µM
  relative viability: 0.322
HARA; first compound 0.01 µM
  relative viability: 0.377
HARA; first compound 0.03162 µM
  relative viability: 0.828
HARA; first compound 0.1 µM
  relative viability: 0.688
HARA; first compound 0.3162 µM
  relative viability: 0.621
HARA; first compound 1 µM
  relative viability: 0.649
EMC-BAC-2; first compound 0.01 µM
  relative viability: 0.976
EMC-BAC-2; first compound 0.03162 µM
  relative viability: 0.93
EMC-BAC-2; first compound 0.1 µM
  relative viability: 0.931
EMC-BAC-2; first compound 0.3162 µM
  relative viability: 0.774
EMC-BAC-2; first compound 1 µM
  relative viability: 0.865
NCI-H460; first compound 0.01 µM
  relative viability: 0.104
NCI-H460; first compound 0.03162 µM
  relative viability: 0.127
NCI-H460; first compound 0.1 µM
  relative viability: 0.185
NCI-H460; first compound 0.3162 µM
  relative viability: 0.197
NCI-H460; first compound 1 µM
  relative viability: 0.12
NCI-H2228; first compound 0.01 µM
  relative viability: 0.723
NCI-H2228; first compound 0.03162 µM
  relative viability: 0.424
NCI-H2228; first compound 0.1 µM
  relative viability: 0.43
NCI-H2228; first compound 0.3162 µM
  relative viability: 0.557
NCI-H2228; first compound 1 µM
  relative viability: 0.534
SW 1573; first compound 0.01 µM
  relative viability: 0.501
SW 1573; first compound 0.03162 µM
  relative viability: 0.594
SW 1573; first compound 0.1 µM
  relative viability: 0.585
SW 1573; first compound 0.3162 µM
  relative viability: 0.603
SW 1573; first compound 1 µM
  relative viability: 0.501
NCI-H727; first compound 0.01 µM
  relative viability: 0.38
NCI-H727; first compound 0.03162 µM
  relative viability: 0.372
NCI-H727; first compound 0.1 µM
  relative viability: 0.389
NCI-H727; first compound 0.3162 µM
  relative viability: 0.391
NCI-H727; first compound 1 µM
  relative viability: 0.37
NCI-H1755; first compound 0.01 µM
  relative viability: 0.807
NCI-H1755; first compound 0.03162 µM
  relative viability: 0.83
NCI-H1755; first compound 0.1 µM
  relative viability: 0.81
NCI-H1755; first compound 0.3162 µM
  relative viability: 0.741
NCI-H1755; first compound 1 µM
  relative viability: 0.819
NCI-H2009; first compound 0.01 µM
  relative viability: 0.315
NCI-H2009; first compound 0.03162 µM
  relative viability: 0.294
NCI-H2009; first compound 0.1 µM
  relative viability: 0.255
NCI-H2009; first compound 0.3162 µM
  relative viability: 0.279
NCI-H2009; first compound 1 µM
  relative viability: 0.212
LCLC-103H; first compound 0.01 µM
  relative viability: 0.712
LCLC-103H; first compound 0.03162 µM
  relative viability: 0.698
LCLC-103H; first compound 0.1 µM
  relative viability: 0.678
LCLC-103H; first compound 0.3162 µM
  relative viability: 0.652
LCLC-103H; first compound 1 µM
  relative viability: 0.663
A-427; first compound 0.01 µM
  relative viability: 0.869
A-427; first compound 0.03162 µM
  relative viability: 0.775
A-427; first compound 0.1 µM
  relative viability: 0.747
A-427; first compound 0.3162 µM
  relative viability: 0.812
A-427; first compound 1 µM
  relative viability: 0.695
NCI-H522; first compound 0.01 µM
  relative viability: 0.733
NCI-H522; first compound 0.03162 µM
  relative viability: 0.86
NCI-H522; first compound 0.1 µM
  relative viability: 0.793
NCI-H522; first compound 0.3162 µM
  relative viability: 0.684
NCI-H522; first compound 1 µM
  relative viability: 0.963
COR-L 105; first compound 0.01 µM
  relative viability: 0.414
COR-L 105; first compound 0.03162 µM
  relative viability: 0.427
COR-L 105; first compound 0.1 µM
  relative viability: 0.446
COR-L 105; first compound 0.3162 µM
  relative viability: 0.451
COR-L 105; first compound 1 µM
  relative viability: 0.429
NCI-H1915; first compound 0.01 µM
  relative viability: 0.32
NCI-H1915; first compound 0.03162 µM
  relative viability: 0.32
NCI-H1915; first compound 0.1 µM
  relative viability: 0.299
NCI-H1915; first compound 0.3162 µM
  relative viability: 0.3
NCI-H1915; first compound 1 µM
  relative viability: 0.3
NCI-H23; first compound 0.01 µM
  relative viability: 0.351
NCI-H23; first compound 0.03162 µM
  relative viability: 0.375
NCI-H23; first compound 0.3162 µM
  relative viability: 0.359
NCI-H23; first compound 1 µM
  relative viability: 0.347
NCI-H1437; first compound 0.01 µM
  relative viability: 0.693
NCI-H1437; first compound 0.03162 µM
  relative viability: 0.548
NCI-H1437; first compound 0.1 µM
  relative viability: 0.531
NCI-H1437; first compound 0.3162 µM
  relative viability: 0.508
NCI-H1437; first compound 1 µM
  relative viability: 0.502

Reference: the supplement of paper PMC10307832
